Columns and labels:
Hep-G2 cells = assay: RNA-seq differential gene expression vs DMSO control; format: cell-based, human
Protocol: To obtain transcriptome level evidence that may shed light on the HCC-selectivity and/or the enhanced potency of the combination of STR-V-53 with anti-PD-1 antibody, we performed RNA sequencing (RNA-seq) analysis on STR-V-53-treated Hep-G2 cells, incubated at IC50 and 2× IC50 for 24 h, relative to the untreated (DMSO) control. We first conducted gene set enrichment analysis (GSEA) using hallmark and gene ontology biological process (GOBP) gene sets to analyze the effect of STR-V-53 vs DMSO-treated control on the Hep-G2 transcriptome.[42],[43] […] Negative enrichment of the G2 M checkpoint pathway supports the finding that STR-V-53 induced S phase arrest in Hep-G2 cells (see Figure 4).
Subsequently, we focused our analysis on specific genes of interest, including gene signatures for HDAC inhibition and immune response pathways. […]
and allowed to grow for 48 hours.
RCF, with this washing step repeated twice. Next, using RNeasy Plus Mini Kit and Qiagen QIAcube […]
determined using a DeNovix spectrophotometer. Subsequently, quality control of the RNA samples was […]
(base call error rate of […]).
FASTQ files of samples were analyzed through the RNA-seq pipeline provided by the Gryder lab1. Reads were aligned to hg38 using STAR version 2.5.3a, and gene expression was calculated as Transcripts per Million mapped reads (TPM) using RSEM version 1.3.3 and filtered for coding genes. Differentially expressed genes lists were generated for each sample by calculating log2 fold change of the averaged sample TPM versus the averaged DMSO-treated control cells TPM and filtering for genes with |log2 fold change| > -1 and false discovery rate < 0.25. Hallmark2 and gene ontology biological processes (GOBP)3 gene set enrichment analysis (GSEA) was performed on the differentially expressed gene lists using the GSEA software (parameters: Run GSEAPreranked, Collapse/Remap- No_Collapse)4. GSEA results were interpreted and visualized using scripts provided by the Gryder lab1.Volcano plots were generated using DESeq2v1.41.1 and visualized with the ggplot2 R packages5,6. […]

[1] = test system: Hep-G2-Red-FLuc intrahepatic tumors; assay: Orthotopic xenograft model of Hep-G2-Red-FLuc human HCC; format: in vivo, mice
Excerpt: Next, we evaluated the effects of STR-V-53 on tumor growth in an orthotopic murine model of Hep-G2-Red-FLuc Bioware Brite Cell Line (PerkinElmer) in mice. Mice (6–8 weeks old) were orthotopically implanted through a direct intrahepatic artery injection with Hep-G2-Red-FLuc cells according to published protocols.[38] We used the Red-Fluc expression to confirm tumor implantation by bioluminescent imaging using IVIS. Treatment began after imaging confirmed the establishment of intrahepatic tumors (approximately 7 days). Mice were grouped into cohorts with similar average relative chemiluminescence. Tumor-bearing mice in the treatment groups were injected daily with 200 μL of solution of STR-V-53, SORA, or a combination of STR-V-53 and SORA for 21 days via the i.p. route. No treatment group received vehicle only. After treatment, mice were imaged again, sacrificed, and liver samples were harvested to determine the effects of treatment on tumor size by measurement with calipers. […] Moreover, the combination therapy of SORA (10 mg/kg) and STR-V-53 (25 mg/kg) is more efficacious than either drug as a standalone agent.
Signaling Technology), respectively, for immunostaining. […]
(Armenian Hamster monoclonal antibody, clone 2H8, Millipore). Positive cells were counted from five random fields for each HCC tissue section. […]
monitored by high-frequency ultrasonography. […]

HDAC3/ NCOR2 = HDAC3/ NCOR2 (Homo sapiens, UniProt O15379); assay: HDAC isoform inhibition (BPS Bioscience)
HDAC10 = HDAC10 (Homo sapiens, UniProt Q969S8); assay: HDAC isoform inhibition (BPS Bioscience)
hERG = hERG (Homo sapiens, UniProt Q12809); assay: In vitro hERG inhibition assay; conditions: maximum tested concentration of 100 μM
hERG, sequence (Q12809 whole entry): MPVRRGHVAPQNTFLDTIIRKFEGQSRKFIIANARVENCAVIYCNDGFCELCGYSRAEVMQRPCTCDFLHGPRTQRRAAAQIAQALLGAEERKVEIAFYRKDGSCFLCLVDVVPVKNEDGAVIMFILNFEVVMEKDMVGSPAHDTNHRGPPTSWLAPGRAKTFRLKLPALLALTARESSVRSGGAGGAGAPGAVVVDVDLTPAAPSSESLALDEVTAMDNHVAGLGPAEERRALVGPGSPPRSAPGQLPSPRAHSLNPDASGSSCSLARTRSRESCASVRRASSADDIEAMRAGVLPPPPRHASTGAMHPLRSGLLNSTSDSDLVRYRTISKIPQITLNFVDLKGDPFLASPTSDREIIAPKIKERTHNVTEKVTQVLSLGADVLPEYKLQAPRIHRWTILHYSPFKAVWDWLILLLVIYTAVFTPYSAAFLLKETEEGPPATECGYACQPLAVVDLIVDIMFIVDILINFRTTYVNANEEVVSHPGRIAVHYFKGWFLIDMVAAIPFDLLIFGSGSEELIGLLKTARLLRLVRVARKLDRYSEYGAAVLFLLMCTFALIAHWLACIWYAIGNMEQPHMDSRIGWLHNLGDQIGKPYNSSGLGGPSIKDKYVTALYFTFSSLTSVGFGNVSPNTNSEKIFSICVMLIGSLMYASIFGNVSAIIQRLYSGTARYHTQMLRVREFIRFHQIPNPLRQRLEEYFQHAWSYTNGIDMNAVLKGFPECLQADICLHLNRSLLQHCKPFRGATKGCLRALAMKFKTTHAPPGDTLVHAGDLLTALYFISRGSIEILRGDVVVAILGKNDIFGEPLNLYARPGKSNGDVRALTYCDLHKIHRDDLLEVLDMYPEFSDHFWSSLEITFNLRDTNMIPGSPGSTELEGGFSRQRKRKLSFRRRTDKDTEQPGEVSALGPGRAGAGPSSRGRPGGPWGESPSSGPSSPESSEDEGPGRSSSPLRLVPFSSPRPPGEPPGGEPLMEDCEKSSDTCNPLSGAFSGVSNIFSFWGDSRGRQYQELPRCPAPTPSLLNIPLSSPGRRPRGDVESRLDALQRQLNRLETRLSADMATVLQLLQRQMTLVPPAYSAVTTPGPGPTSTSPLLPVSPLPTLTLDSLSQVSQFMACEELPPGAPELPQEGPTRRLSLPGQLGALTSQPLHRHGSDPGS

HDAC10, sequence (Q969S8 whole entry, canonical isoform): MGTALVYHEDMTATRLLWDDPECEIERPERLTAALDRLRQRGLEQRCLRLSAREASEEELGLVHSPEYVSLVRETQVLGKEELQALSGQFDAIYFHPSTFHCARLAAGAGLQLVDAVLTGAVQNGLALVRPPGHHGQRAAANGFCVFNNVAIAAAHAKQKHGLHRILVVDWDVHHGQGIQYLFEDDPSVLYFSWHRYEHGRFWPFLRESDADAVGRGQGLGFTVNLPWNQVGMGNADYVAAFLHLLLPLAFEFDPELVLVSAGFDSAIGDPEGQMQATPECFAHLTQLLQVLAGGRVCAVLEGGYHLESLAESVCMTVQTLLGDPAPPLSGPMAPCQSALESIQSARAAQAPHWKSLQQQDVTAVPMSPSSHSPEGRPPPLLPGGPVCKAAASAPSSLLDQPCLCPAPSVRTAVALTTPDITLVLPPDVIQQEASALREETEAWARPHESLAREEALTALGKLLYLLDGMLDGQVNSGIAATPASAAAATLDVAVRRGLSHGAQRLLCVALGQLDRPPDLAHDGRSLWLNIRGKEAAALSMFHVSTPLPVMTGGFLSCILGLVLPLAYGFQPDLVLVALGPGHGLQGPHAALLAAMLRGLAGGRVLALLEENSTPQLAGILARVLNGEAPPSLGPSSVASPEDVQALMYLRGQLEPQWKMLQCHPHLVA
HDAC3/ NCOR2, sequence (O15379 whole entry, canonical isoform): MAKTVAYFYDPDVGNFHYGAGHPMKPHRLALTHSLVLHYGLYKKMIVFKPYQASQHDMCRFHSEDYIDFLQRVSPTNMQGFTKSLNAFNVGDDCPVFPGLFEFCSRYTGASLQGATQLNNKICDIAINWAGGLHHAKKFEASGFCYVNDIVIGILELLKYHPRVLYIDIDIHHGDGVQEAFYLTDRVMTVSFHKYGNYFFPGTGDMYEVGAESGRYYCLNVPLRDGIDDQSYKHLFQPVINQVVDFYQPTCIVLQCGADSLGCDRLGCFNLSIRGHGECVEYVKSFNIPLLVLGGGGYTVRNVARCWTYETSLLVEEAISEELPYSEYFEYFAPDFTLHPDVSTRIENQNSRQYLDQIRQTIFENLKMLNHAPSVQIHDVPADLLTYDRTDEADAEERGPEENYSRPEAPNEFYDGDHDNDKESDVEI
HDAC3/ NCOR2, sequence (Q9Y618 395-489 partner limits assumed): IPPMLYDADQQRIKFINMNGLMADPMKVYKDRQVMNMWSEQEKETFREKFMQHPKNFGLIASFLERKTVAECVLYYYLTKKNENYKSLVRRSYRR

O=C(CCCCCCn1cc(-c2ccc(O[C@H]3O[C@H](CO)[C@@H](O)[C@H](O)[C@H]3O)cc2)nn1)NO [STR-V-53]
ANP32B log2 fold change (Hep-G2 cells; 2× IC50 (20 μM), 24 h): −2.3
CCL16 log2 fold change (Hep-G2 cells; 2× IC50 (20 μM), 24 h): −1.8
CCL20 log2 fold change (Hep-G2 cells; 2× IC50 (20 μM), 24 h): 0.9
CCL25 log2 fold change (Hep-G2 cells; 2× IC50 (20 μM), 24 h): 1.2
CCL26 log2 fold change (Hep-G2 cells; 2× IC50 (20 μM), 24 h): 2.9
CDKN1A (p21) log2 fold change (Hep-G2 cells; 2× IC50 (20 μM), 24 h): 3.3
CX3CL1 log2 fold change (Hep-G2 cells; 2× IC50 (20 μM), 24 h): −1.7
CXCL8 log2 fold change (Hep-G2 cells; 2× IC50 (20 μM), 24 h): −2.0
CXCL11 log2 fold change (Hep-G2 cells; 2× IC50 (20 μM), 24 h): 1.3
DKK-1 log2 fold change (Hep-G2 cells; 2× IC50 (20 μM), 24 h): 6.2
MT1X log2 fold change (Hep-G2 cells; 2× IC50 (20 μM), 24 h): 3.4
PDCD1 log2 fold change (Hep-G2 cells; 2× IC50 (20 μM), 24 h): 3.0
TUBA1A log2 fold change (Hep-G2 cells; 2× IC50 (20 μM), 24 h): 5.4
TYMS log2 fold change (Hep-G2 cells; 2× IC50 (20 μM), 24 h): −3.6
Expression of MHC (HLA) complex, CD8+, and PD-1 (PDCD1) /PD-L1 (CD274) genes (Hep-G2 cells; Hep-G2, RNA-seq, 24 h): upregulates
Expression of GLUTs 1, 2, 9, and 14 (Hep-G2 cells; Hep-G2, within 24 h of uptake): downregulation
Expression of GLUTs 3, 4, 6, and 12 (Hep-G2 cells; Hep-G2, within 24 h of uptake): upregulation
ANP32B log2 fold change (Hep-G2 cells; IC50 (10 μM), 24 h): −1.8
CCL16 log2 fold change (Hep-G2 cells; IC50 (10 μM), 24 h): −1.0
CCL20 log2 fold change (Hep-G2 cells; IC50 (10 μM), 24 h): 1.9
CCL25 log2 fold change (Hep-G2 cells; IC50 (10 μM), 24 h): 0.9
CCL26 log2 fold change (Hep-G2 cells; IC50 (10 μM), 24 h): 2.1
CDKN1A (p21) log2 fold change (Hep-G2 cells; IC50 (10 μM), 24 h): 3.1
CX3CL1 log2 fold change (Hep-G2 cells; IC50 (10 μM), 24 h): −1.5
CXCL8 log2 fold change (Hep-G2 cells; IC50 (10 μM), 24 h): −1.6
CXCL11 log2 fold change (Hep-G2 cells; IC50 (10 μM), 24 h): 1.1
DKK-1 log2 fold change (Hep-G2 cells; IC50 (10 μM), 24 h): 6.5
MT1X log2 fold change (Hep-G2 cells; IC50 (10 μM), 24 h): 2.9
PDCD1 log2 fold change (Hep-G2 cells; IC50 (10 μM), 24 h): 2.1
TUBA1A log2 fold change (Hep-G2 cells; IC50 (10 μM), 24 h): 4.7
TYMS log2 fold change (Hep-G2 cells; IC50 (10 μM), 24 h): −3.2
Tumor growth inhibition (TGI) ([1]; 25 mg/kg daily i.p. for 21 days): 60%
Tumor growth inhibition (TGI) ([1]; 50 mg/kg daily i.p. for 21 days): 68%
IC50 (HDAC3/ NCOR2): 21 nM
IC50 (HDAC10): 54 nM
hERG inhibition (hERG): no inhibition

Reference: article PMC11475281, “A Novel Liver Cancer-Selective Histone Deacetylase Inhibitor Is Effective against Hepatocellular Carcinoma and Induces Durable Responses with Immunotherapy” (ACS Pharmacology & Translational Science, 2024)
